Article PMC12677607, “Identification of a Pair of Linear or Cyclic Naturally Inspired Bifunctional Lipopeptide Antibiotics That Overcome Antimicrobial Resistance” (Advanced Science, 2025)
Values after ≈ are worked out from the molar mass of the structure shown. Numbered stars: 1 amine (or outer) side, 2 acyl side, 3 side chain; on linkers, the order of the positions; unused ones are H or OH. Bridge positions count the residues as written; N and C are the ends. Square brackets hold non-standard residues; d marks the D form. Peptide text beside a SMILES is read from it. * marks the point of attachment. Octanoyl(3R-OH) = CCCCC[C@@H](O)CC(=O)*; X3 = CCCCC[C@H](CC(=O)[*:1])O[*:2]; Dab = NCC[C@H](N)C(=O)O; Dap = NC[C@H](N)C(=O)O

Tests used:
[1] = tested on: Candida albicans ATCC 10231; assay: MIC assay (YPD broth); type: cell-based; details: for MIC (μg/mL) C. albicans ATCC 10231: ATCC 10231, 16 h
Method: (§1) All MIC assays were performed two independent times (n = 2) in 96‐well plates using a broth micro‐dilution method. The lowest concentration of that inhibited visible microbial growth was recorded as the MIC value.
(§2) For fungal strains, overnight cultures were diluted 2000‐fold in YPD broth. 100 µL of diluted cells was mixed with 100 µL of YPD broth containing each peptide ranging from […] 64 to 0.125 µg mL^−1 at 2‐fold serial dilutions.

[2] = tested on: Streptococcus pyogenes ATCC 19615; assay: microbe, parasite or virus in culture; type: cell-based; details: for MIC (μg/mL) S. pyogenes ATCC 19615: ATCC 19615, 16 h
Method: as §1
(§3) For most of bacterial strains, overnight cultures were diluted 5000‐fold in LB broth. For E. faecium and S. aureus, overnight cultures were diluted 1000‐ and 10000‐fold in LB broth, respectively. 100 µL of diluted cells was mixed with 100 µL of LB broth containing each peptide ranging from 64 to 0.125 µg mL^−1 at 2‐fold serial dilutions.

[3] = tested on: Klebsiella pneumoniae CRKP 5452; assay: microbe, parasite or virus in culture; type: cell-based; details: for MIC (μg/mL) K. pneumoniae CRKP 5452: CRKP 5452, 16 h
Method: as §1, §3

[4] = tested on: Acinetobacter baumannii 1104008; assay: microbe, parasite or virus in culture; type: cell-based; details: for MIC (μg/mL) A. baumannii 1104008: 1104008, 16 h
Method: as §1, §3

[5] = tested on: Staphylococcus aureus USA300; assay: microbe, parasite or virus in culture; type: cell-based; details: for MIC (μg/mL) S. aureus USA300: USA300, 16 h
Method: as §1, §3

HeLa cells = assay: Cytotoxicity assay (CCK-8); type: cell-based, human; details: 48 h
Method: The cytotoxicity of each synAQU peptide was assessed using a cell counting kit‐8 (CCK‐8) assay. HeLa cells were first seeded in a 96‐well flat‐bottom microtiter plate with a density of ∼5000 cells per well and incubated in the DMEM medium supplemented with 10% FBS at 37 °C with 5% CO2 for 24 h. […] All cytotoxicity experiments were done in triplicate (n = 3) and repeated two independent times (n = 2).

Shigella Castellani LXX = assay: MIC assay (broth micro-dilution); type: cell-based; details: Table S11, LB broth, 37 °C, 16 h, n = 2
Method: as §1, §3

[6] = tested on: Enterococcus faecalis ATCC 29212; assay: microbe, parasite or virus in culture; type: cell-based; details: ATCC 29212, 16 h
Method: as §1, §3

[7] = tested on: Pseudomonas aeruginosa PAO1; assay: microbe, parasite or virus in culture; type: cell-based
Method: as §1, §3

[8] = tested on: Vibrio alginolyticus XSBZ14; assay: microbe, parasite or virus in culture; type: cell-based
Method: as §1, §3

[9] = tested on: Staphylococcus aureus Newman; assay: microbe, parasite or virus in culture; type: cell-based; details: Newman, 16 h
Method: as §1, §3

Enterococcus faecalis 28 = assay: microbe, parasite or virus in culture; type: cell-based; details: 28, 16 h
Method: as §1, §3

[10] = tested on: Salmonella typhimurium LXX; assay: microbe, parasite or virus in culture; type: cell-based; details: 16 h
Method: as §1, §3

[11] = tested on: Streptococcus mutans ATCC 25175; assay: microbe, parasite or virus in culture; type: cell-based; details: ATCC 25175, 16 h
Method: as §1, §3

[12] = tested on: Acinetobacter baumannii ATCC 19606; assay: microbe, parasite or virus in culture; type: cell-based
Method: as §1, §3

[13] = tested on: Staphylococcus aureus ATCC 6538; assay: microbe, parasite or virus in culture; type: cell-based; details: ATCC 6538, 16 h
Method: as §1, §3

[14] = tested on: Klebsiella pneumoniae ATCC 13883; assay: microbe, parasite or virus in culture; type: cell-based
Method: as §1, §3

[15] = tested on: Enterococcus faecium 35682; assay: microbe, parasite or virus in culture; type: cell-based; details: Table S11; LB broth, 37 °C, 16 h, n = 2
Method: as §1, §3

[16] = tested on: Pseudomonas aeruginosa ATCC 9027; assay: microbe, parasite or virus in culture; type: cell-based
Method: as §1, §3

Enterococcus faecalis 26 = assay: microbe, parasite or virus in culture; type: cell-based; details: 26, 16 h
Method: as §1, §3

[17] = tested on: Klebsiella pneumoniae NCTC 5056; assay: microbe, parasite or virus in culture; type: cell-based
Method: as §1, §3

[18] = tested on: Acinetobacter baumannii P53; assay: microbe, parasite or virus in culture; type: cell-based; details: Table S11, LB broth, 37 °C, 16 h, n = 2
Method: as §1, §3

[19] = tested on: Salmonella enterica ATCC 14028; assay: microbe, parasite or virus in culture; type: cell-based
Method: as §1, §3

[20] = tested on: Staphylococcus aureus ATCC 25923; assay: microbe, parasite or virus in culture; type: cell-based; details: ATCC 25923, 16 h
Method: as §1, §3

[21] = tested on: Klebsiella pneumoniae CRKP HS11286; assay: microbe, parasite or virus in culture; type: cell-based
Method: as §1, §3

[22] = tested on: Acinetobacter baumannii ATCC 17978; assay: microbe, parasite or virus in culture; type: cell-based
Method: as §1, §3

[23] = tested on: Candida albicans ATCC 64550; type: cell-based; details: ATCC 64550, 16 h
Method: as §1, §2

[24] = Table S11, LB broth, 37 °C, 16 h, n = 2

CCCCC[C@@H](O)CC(=O)N[C@@H](CN)C(=O)N[C@@H](Cc1ccccc1)C(=O)N[C@@H](CCN)C(=O)N[C@H](C(=O)N[C@H](Cc1ccccc1)C(=O)N[C@@H](CN)C(=O)N[C@H](CC(C)C)C(=O)N[C@H](C(=O)N[C@@H](CC(=O)O)C(=O)O)C(C)C)[C@@H](C)O [synAQU3-L] ({Octanoyl(3R-OH)}-[Dap]F[Dab]T[dF][Dap][dL]VD-OH)
MIC (μg/mL) C. albicans ATCC 10231 [1]: > 64 µg/mL | MIC (μg/mL) S. pyogenes ATCC 19615 [2]: > 64 µg/mL | MIC (μg/mL) K. pneumoniae CRKP 5452 [3]: > 64 µg/mL | MIC (μg/mL) A. baumannii 1104008 [4]: > 64 µg/mL | MIC (μg/mL) S. aureus USA300 [5]: > 64 µg/mL | MIC (μg/mL) Hela (HeLa cells): > 64 µg/mL

CCCCC[C@@H]1CC(=O)N[C@@H](CN)C(=O)N[C@@H](Cc2ccccc2)C(=O)N[C@@H](CCN)C(=O)N[C@@H]([C@@H](C)O)C(=O)N[C@H](Cc2ccccc2)C(=O)N[C@@H](CN)C(=O)N[C@H](CC(C)C)C(=O)N[C@@H](C(C)C)C(=O)N[C@@H](CC(=O)O)C(=O)O1 [synAQU3-cFA] ([Dap]F[Dab]T[dF][Dap][dL]VD; linker N-C via X3)
MIC Candida albicans ATCC 10231 ([1]; Table S11, YPD broth, 30 °C, 16 h, n = 2): 32 µg/mL (≈ 28.1 µM) | MIC Shigella Castellani LXX (Shigella Castellani LXX): 64 µg/mL (≈ 56.3 µM) | MIC Enterococcus faecalis ATCC 29212 [6]: > 64 µg/mL | MIC Pseudomonas aeruginosa PAO1 ([7]; PAO1, 16 h): 64 µg/mL (≈ 56.3 µM) | MIC Streptococcus pyogenes ATCC 19615 [2, 24]: 8 µg/mL (≈ 7.03 µM) | MIC Vibrio alginolyticus XSBZ14 ([8]; 16 h): > 64 µg/mL | MIC Staphylococcus aureus Newman [9]: > 64 µg/mL | MIC Klebsiella pneumoniae CRKP 5452 [3, 24]: > 64 µg/mL | MIC Enterococcus faecalis 28 (Enterococcus faecalis 28): > 64 µg/mL | MIC Acinetobacter baumannii 1104008 [4, 24]: > 64 µg/mL | MIC Salmonella typhimurium LXX ([10]; murium LXX): 64 µg/mL (≈ 56.3 µM) | MIC Streptococcus mutans ATCC 25175 [11]: 32 µg/mL (≈ 28.1 µM) | MIC Acinetobacter baumannii ATCC 19606 ([12]; ATCC 19606, 16 h): > 64 µg/mL | MIC Staphylococcus aureus USA300 [5, 24]: > 64 µg/mL | MIC Staphylococcus aureus ATCC 6538 [13]: > 64 µg/mL | MIC Klebsiella pneumoniae ATCC 13883 ([14]; ATCC 13883, 16 h): > 64 µg/mL | MIC Enterococcus faecium 35682 [15]: 32 µg/mL (≈ 28.1 µM) | MIC Pseudomonas aeruginosa ATCC 9027 ([16]; ATCC 9027, 16 h): 32 µg/mL (≈ 28.1 µM) | MIC Enterococcus faecalis 26 (Enterococcus faecalis 26): 16 µg/mL (≈ 14.1 µM) | MIC Klebsiella pneumoniae NCTC 5056 ([17]; NCTC 5056, 16 h): > 64 µg/mL | MIC Acinetobacter baumannii P53 [18]: > 64 µg/mL | MIC Salmonella enterica ATCC 14028 ([19]; ATCC 14028, 16 h): > 64 µg/mL | MIC Staphylococcus aureus ATCC 25923 [20]: > 64 µg/mL | MIC Klebsiella pneumoniae CRKP HS11286 ([21]; CRKP HS11286, 16 h): > 64 µg/mL | MIC Acinetobacter baumannii ATCC 17978 ([22]; ATCC 17978, 16 h): 64 µg/mL (≈ 56.3 µM) | MIC Candida albicans ATCC 64550 [23]: 32 µg/mL (≈ 28.1 µM)

CCCCC[C@@H](O)CC(=O)N[C@@H](CN)C(=O)N[C@@H](Cc1ccccc1)C(=O)N[C@@H](CCN)C(=O)N[C@@H]1C(=O)N[C@H](Cc2ccccc2)C(=O)N[C@@H](CN)C(=O)N[C@H](CC(C)C)C(=O)N[C@@H](C(C)C)C(=O)N[C@@H](CC(=O)O)C(=O)O[C@@H]1C [synAQU3-C4] ({Octanoyl(3R-OH)}-[Dap]F[Dab]T[dF][Dap][dL]VD; ester 4-C (inferred))
MIC (μg/mL) C. albicans ATCC 10231 [1]: > 64 µg/mL | MIC (μg/mL) S. pyogenes ATCC 19615 [2]: > 64 µg/mL | MIC (μg/mL) K. pneumoniae CRKP 5452 [3]: > 64 µg/mL | MIC (μg/mL) A. baumannii 1104008 [4]: > 64 µg/mL | MIC (μg/mL) S. aureus USA300 [5]: > 64 µg/mL | MIC (μg/mL) Hela (HeLa cells): > 64 µg/mL

C[C@@H](O)[C@H]1C(=O)N2C(C(=O)O)=C(S[C@@H]3CN[C@H](C(=O)N(C)C)C3)[C@H](C)[C@H]12 [Meropenem, reference compound]
MIC (Shigella Castellani LXX; Shigella): 0.125 µg/mL (≈ 0.326 µM) | MIC ([7]; Pseudomonas aeruginosa, PAO1, Table S11, LB broth, 37 °C, 16 h, n = 2): 16 µg/mL (≈ 41.7 µM) | MIC ([8]; Vibrio alginolyticus, XSBZ14, 16 h, read-out: MIC Vibrio alginolyticus XSBZ14): < 0.125 µg/mL | MIC ([3]; Klebsiella pneumoniae, CRKP5452, Table S11, LB broth, 37 °C, 16 h, n = 2): 16 µg/mL (≈ 41.7 µM) | MIC ([4]; Acinetobacter baumannii, 1104008, Table S11, LB broth, 37 °C, 16 h, n = 2): 16 µg/mL (≈ 41.7 µM) | MIC ([10]; Salmonella enterica, TYPHIMURIUM, read-out: MIC Salmonella typhimurium LXX): 0.125 µg/mL (≈ 0.326 µM) | MIC ([12]; Acinetobacter baumannii, ATCC19606, Table S11, LB broth, 37 °C, 16 h, n = 2): 0.5 µg/mL (≈ 1.3 µM) | MIC ([14]; Klebsiella pneumoniae, ATCC13883, 16 h, read-out: MIC Klebsiella pneumoniae ATCC 13883): < 0.125 µg/mL | MIC ([16]; Pseudomonas aeruginosa, ATCC9027, Table S11, LB broth, 37 °C, 16 h, n = 2): 0.25 µg/mL (≈ 0.652 µM) | MIC ([17]; Klebsiella pneumoniae, NCTC5056, 16 h, read-out: MIC Klebsiella pneumoniae NCTC 5056): 0.125 µg/mL (≈ 0.326 µM) | MIC ([18]; Acinetobacter baumannii, P53): 32 µg/mL (≈ 83.4 µM) | MIC ([19]; Salmonella enterica, ATCC14028, 16 h, read-out: MIC Salmonella enterica ATCC 14028): 0.125 µg/mL (≈ 0.326 µM) | MIC ([21]; Klebsiella pneumoniae, CRKPHS11286, 16 h, read-out: MIC Klebsiella pneumoniae CRKP HS11286): 8 µg/mL (≈ 20.9 µM) | MIC ([22]; Acinetobacter baumannii, ATCC17978, Table S11, LB broth, 37 °C, 16 h, n = 2): 0.25 µg/mL (≈ 0.652 µM)
